According to patent US11332476B2, “Fms-like tyrosine kinase inhibitors” (3SM BIOTRON INC., priority 2018, dated 2022):

Molecular target: T1, FLT3 (Homo sapiens, UniProt P36888)
T1 sequence (P36888 27-993): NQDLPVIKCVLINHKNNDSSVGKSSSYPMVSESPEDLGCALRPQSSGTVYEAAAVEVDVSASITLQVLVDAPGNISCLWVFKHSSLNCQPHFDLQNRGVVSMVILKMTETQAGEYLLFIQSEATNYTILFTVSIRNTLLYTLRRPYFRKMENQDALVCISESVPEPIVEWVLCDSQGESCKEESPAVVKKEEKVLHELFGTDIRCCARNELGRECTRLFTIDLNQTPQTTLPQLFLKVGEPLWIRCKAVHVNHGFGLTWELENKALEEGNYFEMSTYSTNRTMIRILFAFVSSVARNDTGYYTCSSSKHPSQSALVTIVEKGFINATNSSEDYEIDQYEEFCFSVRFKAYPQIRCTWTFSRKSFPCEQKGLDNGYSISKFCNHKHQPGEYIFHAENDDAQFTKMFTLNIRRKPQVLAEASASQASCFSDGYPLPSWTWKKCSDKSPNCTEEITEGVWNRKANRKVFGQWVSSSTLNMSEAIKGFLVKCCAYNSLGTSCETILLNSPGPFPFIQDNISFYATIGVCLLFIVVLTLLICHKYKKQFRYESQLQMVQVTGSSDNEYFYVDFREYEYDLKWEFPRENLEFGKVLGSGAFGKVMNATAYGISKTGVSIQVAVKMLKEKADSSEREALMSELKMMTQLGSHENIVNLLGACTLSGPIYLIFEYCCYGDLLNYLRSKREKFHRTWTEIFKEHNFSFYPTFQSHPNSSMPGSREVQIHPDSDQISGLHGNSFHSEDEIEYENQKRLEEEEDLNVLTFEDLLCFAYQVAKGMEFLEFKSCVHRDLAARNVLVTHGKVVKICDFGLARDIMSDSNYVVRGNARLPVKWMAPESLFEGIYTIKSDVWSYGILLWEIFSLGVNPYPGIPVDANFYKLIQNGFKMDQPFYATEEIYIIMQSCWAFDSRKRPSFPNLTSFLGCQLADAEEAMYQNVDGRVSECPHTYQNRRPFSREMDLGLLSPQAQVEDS
Experiment: Inhibition of FLT3, 33P-ATP kinase assay with filter-binding detection
Format: biochemical
Conditions: 33P-ATP 10 uM, 2 hours at room temperature, filter-binding method
Method: Prepare indicated substrate in freshly prepared Base Reaction Buffer (20 mM Hepes (pH 7.5), 10 mM MgCl2, 1 mM EGTA, 0.02% Brij35, 0.02 mg/ml BSA, 0.1 mM Na3VO4, 2 mM DTT, 1% DMSO). Deliver any required cofactors to the substrate solution above. Deliver indicated kinase into the substrate solution and gently mix. The testing compounds in DMSO was added into the kinase reaction mixture by Acoustic technology (Echo550; nanoliter range) and incubated for 20 minutes at room temperature. Deliver 33P-ATP (specific activity […]) into the reaction mixture to initiate the reaction. Incubate kinase reaction for 2 hours at room temperature. Reactions are spotted onto P81 ion exchange paper. Detect kinase activity by filter-binding method.
Inhibition of FLT3 with 4-Quinolone Derivatives

Nc1nc2ccccc2c2c1S(=O)(=O)c1ccc(Cl)cc1C2=O [compound 7001, 6-Amino-10-chloro-12H-thiochromeno[2,3-c]quinolin-12-one 7,7-dioxide]
IC50: > 1 µM

NCCCNc1nc2ccccc2c2c(=O)c3cc(C(F)(F)F)ccc3sc12 [compound 7201, 6-(3-aminopropylamino)-10-trifluoromethyl-12H-thiochromeno[2,3-c]quinolin-12-one]
IC50: > 1 µM

Cc1ccc2sc3c(NCCCN)nc4ccccc4c3c(=O)c2c1 [compound 7202, 6-(3-aminopropylamino)-10-methyl-12H-thiochromeno[2,3-c]quinolin-12-one]
IC50: 0.051 to 0.2 µM

NCCCNc1nc2ccccc2c2c(=O)c3cc(OC(F)(F)F)ccc3sc12 [compound 7203, 6-(3-aminopropylamino)-10-(trifluoromethoxy)-12H-thiochromeno[2,3-c]quinolin-12-one]
IC50: > 1 µM

NCCCNc1nc2ccccc2c2c(=O)c3cccc(F)c3sc12 [compound 7211, 6-(3-aminopropylamino)-8-fluoro-12H-thiochromeno[2,3-c]quinolin-12-one]
IC50: < 0.051 µM

COc1cccc2c(=O)c3c(sc12)c(NCCCN)nc1ccccc13 [compound 7212, 6-(3-aminopropylamino)-8-methoxy-12H-thiochromeno[2,3-c]quinolin-12-one]
IC50: < 0.051 µM

NCCCNc1nc2ccccc2c2c(=O)c3cc(F)cc(Cl)c3sc12 [compound 7213, 6-(3-aminopropylamino)-8-chloro-10-fluoro-12H-thiochromeno[2,3-c]quinolin-12-one]
IC50: > 1 µM

O=c1c2cc(C(F)(F)F)ccc2sc2c(NCCCNCCO)nc3ccccc3c12 [compound 7214, 6-(3-(2-hydroxyethylamino)propylamino)-10-trifluoromethyl-12H-thiochromeno[2,3-c]quinolin-12-one]
IC50: > 1 µM

Cc1ccc2sc3c(NCCCNCCO)nc4ccccc4c3c(=O)c2c1 [compound 7215, 6-(3-(2-hydroxyethylamino)propylamino)-10-methyl-12H-thiochromeno[2,3-c]quinolin-12-one]
IC50: 0.201 to 0.5 µM

O=c1c2cccc(F)c2sc2c(NCCCNCCO)nc3ccccc3c12 [compound 7224, 8-fluoro-6-(3-(2-hydroxyethylamino)propylamino)-12H-thiochromeno[2,3-c]quinolin-12-one]
IC50: 0.201 to 0.5 µM

COc1cccc2c(=O)c3c(sc12)c(NCCCNCCO)nc1ccccc13 [compound 7225, 6-(3-(2-hydroxyethylamino)propylamino)-8-methoxy-12H-thiochromeno[2,3-c]quinolin-12-one]
IC50: 0.201 to 0.5 µM

O=c1c2cc(F)cc(Cl)c2sc2c(NCCCNCCO)nc3ccccc3c12 [compound 7226, 8-chloro-10-fluoro-6-(3-(2-hydroxyethylamino)propylamino)-12H-thiochromeno[2,3-c]quinolin-12-one]
IC50: > 1 µM

Cc1ccc2sc3c(NCCN)nc4ccccc4c3c(=O)c2c1 [compound 7231, 6-(2-aminoethylamino)-10-methyl-12H-thiochromeno[2,3-c]quinolin-12-one]
IC50: < 0.051 µM

CCNc1nc2ccccc2c2c(=O)c3cc(C)ccc3sc12 [compound 7232, 6-(ethylamino)-10-methyl-12H-thiochromeno[2,3-c]quinolin-12-one]
IC50: > 1 µM

Cc1ccc2sc3c(NCc4ccccc4)nc4ccccc4c3c(=O)c2c1 [compound 7233, 6-(benzylamino)-10-methyl-12H-thiochromeno[2,3-c]quinolin-12-one]
IC50: > 1 µM

NCCNc1nc2ccccc2c2c(=O)c3cccc(F)c3sc12 [compound 7240, 6-(2-aminoethylamino)-8-fluoro-12H-thiochromeno[2,3-c]quinolin-12-one]
IC50: < 0.051 µM

CCNc1nc2ccccc2c2c(=O)c3cccc(F)c3sc12 [compound 7241, 6-(ethylamino)-8-fluoro-12H-thiochromeno[2,3-c]quinolin-12-one]
IC50: > 1 µM

COc1cccc2c(=O)c3c(sc12)c(NCCN)nc1ccccc13 [compound 7244, 6-(2-aminoethylamino)-8-methoxy-12H-thiochromeno[2,3-c]quinolin-12-one]
IC50: < 0.051 µM

CCNc1nc2ccccc2c2c(=O)c3cccc(OC)c3sc12 [compound 7245, 6-(ethylamino)-8-methoxy-12H-thiochromeno[2,3-c]quinolin-12-one]
IC50: > 1 µM

COc1cccc2c(=O)c3c(sc12)c(N1CCNCC1)nc1ccccc13 [compound 7247, 8-methoxy-6-(piperazin-1-yl)-12H-thiochromeno[2,3-c]quinolin-12-one]
IC50: 0.051 to 0.2 µM

NCCNc1nc2ccccc2c2c(=O)c3cc(F)cc(Cl)c3sc12 [compound 7248, 6-(2-aminoethylamino)-8-chloro-10-fluoro-12H-thiochromeno[2,3-c]quinolin-12-one]
IC50: 0.051 to 0.2 µM

NCCCNc1nc2ccccc2c2c(=O)c3cc(F)cc(F)c3sc12 [compound 7252, 6-(3-aminopropylamino)-8,10-difluoro-12H-thiochromeno[2,3-c]quinolin-12-one]
IC50: 0.201 to 0.5 µM

O=c1c2cc(F)cc(F)c2sc2c(NCCCNCCO)nc3ccccc3c12 [compound 7253, 8,10-difluoro-6-(3-(2-hydroxyethylamino)propylamino)-12H-thiochromeno[2,3-c]quinolin-12-one]
IC50: > 1 µM

NCCNc1nc2ccccc2c2c(=O)c3cc(F)cc(F)c3sc12 [compound 7254, 6-(2-aminoethylamino)-8,10-difluoro-12H-thiochromeno[2,3-c]quinolin-12-one]
IC50: 0.051 to 0.2 µM

NCCCNc1nc2ccc(F)cc2c2c(=O)c3cc(F)ccc3sc12 [compound 7402, 6-(3-aminopropylamino)-2,10-difluoro-12H-thiochromeno[2,3-c]quinolin-12-one]
IC50: > 1 µM

NCCCNc1nc2ccc(Cl)cc2c2c(=O)c3cc(F)ccc3sc12 [compound 7403, 6-((3-aminopropyl)amino)-2-chloro-10-fluoro-12H-thiochromeno[2,3-c]quinolin-12-one]
IC50: > 1 µM

O=c1c2cc(F)ccc2sc2c(NCCCNCCO)nc3ccc(Cl)cc3c12 [compound 7406, 2-chloro-10-fluoro-6-(3-(2-hydroxyethylamino)propylamino)-12H-thiochromeno[2,3-c]quinolin-12-one]
IC50: > 1 µM

COc1ccc2nc(NCCCNCCO)c3sc4ccc(F)cc4c(=O)c3c2c1 [compound 7407, 10-fluoro-6-(3-(2-hydroxyethylamino)propylamino)-2-methoxy-12H-thiochromeno[2,3-c]quinolin-12-one]
IC50: > 1 µM

O=c1c2cc(F)ccc2sc2c(NCCCNCCO)nc3ccc(F)cc3c12 [compound 7408, 2,10-difluoro-6-(3-(2-hydroxyethylamino)propylamino)-12H-thiochromeno[2,3-c]quinolin-12-one]
IC50: > 1 µM

NCCNc1nc2ccc(F)cc2c2c(=O)c3cc(F)ccc3sc12 [compound 7422, 6-(2-aminoethylamino)-2,10-difluoro-12H-thiochromeno[2,3-c]quinolin-12-one]
IC50: > 1 µM

O=c1c2cc(F)ccc2sc2c(NCc3ccccc3)nc3ccc(F)cc3c12 [compound 7424, 6-(benzylamino)-2,10-difluoro-12H-thiochromeno[2,3-c]quinolin-12-one]
IC50: > 1 µM

O=c1c2cc(F)ccc2sc2c(N3CCNCC3)nc3ccc(F)cc3c12 [compound 7425, 2,10-difluoro-6-(piperazin-1-yl)-12H-thiochromeno[2,3-c]quinolin-12-one]
IC50: > 1 µM

O=c1c2cc(Cl)ccc2sc2c(NCCCNCCO)nc3ccccc3c12 [compound 7701, 10-chloro-6-(3-(2-hydroxyethylamino)propylamino)-12H-thiochromeno[2,3-c]quinolin-12-one]
IC50: > 1 µM

CCCNc1nc2ccccc2c2c(=O)c3cc(Cl)ccc3sc12 [compound 7703, 10-chloro-6-(propylamino)-12H-thiochromeno[2,3-c]quinolin-12-one]
IC50: > 1 µM

NCCCNc1nc2ccccc2c2c(=O)c3cc(Cl)ccc3sc12 [compound 7704, 6-(3-aminopropylamino)-10-chloro-12H-thiochromeno[2,3-c]quinolin-12-one]
IC50: 0.501 to 1 µM

Nc1nc2ccccc2c2c(=O)c3cc(F)ccc3sc12 [compound 7705, 6-amino-10-fluoro-12H-thiochromeno[2,3-c]quinolin-12-one]
IC50: > 1 µM
